Calls of active or inactive are those of the source. The calls are words filed in the database; no cut-off is given here.
What was measured:
[1] = biological target: T1, Adrenergic receptor alpha-2 (Rattus norvegicus, UniProt P22086+P19328+P22909); test: Ability to inhibit 50% specific binding of [3H]-p-amino clonidine radioligand to alpha-2 adrenergic receptor in rat cerebrocortex; type: tissue-based, Cortex
T1 sequence (P22086 whole entry): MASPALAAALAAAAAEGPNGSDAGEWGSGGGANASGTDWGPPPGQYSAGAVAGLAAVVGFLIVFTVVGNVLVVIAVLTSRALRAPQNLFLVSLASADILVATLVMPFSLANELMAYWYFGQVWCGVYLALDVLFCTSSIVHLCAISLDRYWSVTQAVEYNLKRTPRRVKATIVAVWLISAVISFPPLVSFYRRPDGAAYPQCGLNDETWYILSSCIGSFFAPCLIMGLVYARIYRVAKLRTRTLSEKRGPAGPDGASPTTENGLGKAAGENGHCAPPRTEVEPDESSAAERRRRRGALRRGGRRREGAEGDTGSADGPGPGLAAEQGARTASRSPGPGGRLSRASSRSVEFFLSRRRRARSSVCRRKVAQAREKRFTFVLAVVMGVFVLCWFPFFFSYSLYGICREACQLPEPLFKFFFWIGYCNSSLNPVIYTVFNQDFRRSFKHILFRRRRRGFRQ
T1 sequence (P19328 whole entry): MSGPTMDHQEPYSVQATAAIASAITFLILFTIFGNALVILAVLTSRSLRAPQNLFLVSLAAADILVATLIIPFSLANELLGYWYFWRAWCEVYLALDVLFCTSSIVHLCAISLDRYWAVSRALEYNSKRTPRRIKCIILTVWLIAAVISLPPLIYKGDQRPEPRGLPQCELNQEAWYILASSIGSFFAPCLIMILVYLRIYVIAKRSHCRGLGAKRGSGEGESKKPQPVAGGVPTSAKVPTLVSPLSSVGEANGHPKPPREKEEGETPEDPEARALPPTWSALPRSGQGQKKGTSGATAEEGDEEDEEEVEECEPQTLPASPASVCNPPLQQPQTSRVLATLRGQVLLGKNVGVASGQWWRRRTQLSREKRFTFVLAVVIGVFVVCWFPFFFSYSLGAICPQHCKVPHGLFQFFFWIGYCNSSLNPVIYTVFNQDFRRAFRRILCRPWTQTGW
T1 sequence (P22909 whole entry): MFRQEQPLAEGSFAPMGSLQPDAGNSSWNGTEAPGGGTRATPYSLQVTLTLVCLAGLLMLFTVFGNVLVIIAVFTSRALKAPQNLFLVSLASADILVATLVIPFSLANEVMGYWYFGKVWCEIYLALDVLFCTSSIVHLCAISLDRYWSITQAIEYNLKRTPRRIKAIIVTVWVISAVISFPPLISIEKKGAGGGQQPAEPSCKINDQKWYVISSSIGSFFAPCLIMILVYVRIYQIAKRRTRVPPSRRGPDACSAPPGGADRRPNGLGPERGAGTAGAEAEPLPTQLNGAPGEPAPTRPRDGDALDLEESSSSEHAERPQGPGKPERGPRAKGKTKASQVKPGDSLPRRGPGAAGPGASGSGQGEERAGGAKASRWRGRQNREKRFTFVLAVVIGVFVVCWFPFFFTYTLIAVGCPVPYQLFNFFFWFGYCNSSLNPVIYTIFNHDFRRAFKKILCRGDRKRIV

Canis familiaris [2] = species on record: Canis familiaris; test: Dose required to reduce blood pressure by 15% (ED15) was calculated.; type: functional; settings: Canis lupus familiaris
Canis familiaris [3] = test: Mean arterial blood pressure was determined at cumulative dose of 0.01 mg/kg in anesthetized dogs by intravenous administration after SCH 23390 pretreatment; type: functional, Canis lupus familiaris
Canis familiaris [4] = test: Mean arterial blood pressure was determined at cumulative dose of 0.01 mg/kg in anesthetized dogs by intravenous administration after sulpiride pretreatment; type: functional, Canis lupus familiaris
Canis familiaris [5] = test: Mean arterial blood pressure was determined at cumulative dose of 0.03 mg/kg in anesthetized dogs by intravenous administration after SCH 23390 pretreatment; type: functional, Canis lupus familiaris
Canis familiaris [6] = test: Renal blood flow was determined at cumulative dose of 0.1 mg/kg in anesthetized dogs by intravenous administration after sulpiride pretreatment; type: functional, Canis lupus familiaris, Kidney
Canis familiaris [7] = test: Renal blood flow was determined at cumulative dose of 0.3 mg/kg in anesthetized dogs by intravenous administration after SCH 23390 pretreatment; type: functional, Canis lupus familiaris, Kidney
Canis familiaris [8] = test: Renal blood flow was determined at cumulative dose of 0.3 mg/kg in anesthetized dogs by intravenous administration after sulpiride pretreatment; type: functional, Canis lupus familiaris, Kidney
Canis familiaris [9] = test: Renal blood flow was determined at cumulative dose of 1 mg/kg in anesthetized dogs by intravenous administration after SCH 23390 pretreatment; type: functional, Canis lupus familiaris, Kidney
Canis familiaris [10] = test: Renal blood flow was determined at cumulative dose of 1 mg/kg in anesthetized dogs by intravenous administration after sulpiride pretreatment; type: functional, Canis lupus familiaris, Kidney
Canis familiaris [11] = test: Mean arterial blood pressure was determined at cumulative dose of 0.03 mg/kg in anesthetized dogs by intravenous administration after sulpiride pretreatment; type: functional, Canis lupus familiaris
Canis familiaris [12] = test: Mean arterial blood pressure was determined at cumulative dose of 0.1 mg/kg in anesthetized dogs by intravenous administration after SCH 23390 pretreatment; type: functional, Canis lupus familiaris
Canis familiaris [13] = test: Mean arterial blood pressure was determined at cumulative dose of 0.1 mg/kg in anesthetized dogs by intravenous administration after sulpiride pretreatment; type: functional, Canis lupus familiaris
Canis familiaris [14] = test: Mean arterial blood pressure was determined at cumulative dose of 0.3 mg/kg in anesthetized dogs by intravenous administration after SCH 23390 pretreatment; type: functional, Canis lupus familiaris
Canis familiaris [15] = test: Mean arterial blood pressure was determined at cumulative dose of 0.3 mg/kg in anesthetized dogs by intravenous administration after sulpiride pretreatment; type: functional, Canis lupus familiaris
Canis familiaris [16] = test: Mean arterial blood pressure was determined at cumulative dose of 1 mg/kg in anesthetized dogs by intravenous administration after SCH 23390 pretreatment; type: functional, Canis lupus familiaris
Canis familiaris [17] = test: Mean arterial blood pressure was determined at cumulative dose of 1 mg/kg in anesthetized dogs by intravenous administration after sulpiride pretreatment; type: functional, Canis lupus familiaris
Canis familiaris [18] = test: Renal blood flow was determined at cumulative dose of 0.01 mg/kg in anesthetized dogs by intravenous administration after SCH 23390 pretreatment; type: functional, Canis lupus familiaris, Kidney
Canis familiaris [19] = test: Renal blood flow was determined at cumulative dose of 0.01 mg/kg in anesthetized dogs by intravenous administration after sulpiride pretreatment; type: functional, Canis lupus familiaris, Kidney
Canis familiaris [20] = test: Renal blood flow was determined at cumulative dose of 0.03 mg/kg in anesthetized dogs by intravenous administration after SCH 23390 pretreatment; type: functional, Canis lupus familiaris, Kidney
Canis familiaris [21] = test: Renal blood flow was determined at cumulative dose of 0.03 mg/kg in anesthetized dogs by intravenous administration after sulpiride pretreatment; type: functional, Canis lupus familiaris, Kidney
Canis familiaris [22] = test: Renal blood flow was determined at cumulative dose of 0.1 mg/kg in anesthetized dogs by intravenous administration after SCH 23390 pretreatment; type: functional, Canis lupus familiaris, Kidney
Canis familiaris [23] = test: Mean arterial blood pressure (MABP) was evaluated in anesthetized dog after intravenous administration of 1 mg/kg of compound; type: functional, Canis lupus familiaris
Rattus norvegicus [24] = test: Mean arterial blood pressure (MABP) was evaluated in chronically cannulated spontaneously hypertensive rats (SHR) after peroral administration 30 mg/kg of compound; […]; type: functional
[25] = biological target: T2, Adrenergic receptor alpha-1 (Rattus norvegicus, UniProt P15823+P23944+P43140); test: Ability to inhibit 50% specific binding of [3H]prazosin radioligand to alpha-1 adrenergic receptor in rat cerebrocortex; type: tissue-based, Cortex
T2 sequence (P15823 whole entry): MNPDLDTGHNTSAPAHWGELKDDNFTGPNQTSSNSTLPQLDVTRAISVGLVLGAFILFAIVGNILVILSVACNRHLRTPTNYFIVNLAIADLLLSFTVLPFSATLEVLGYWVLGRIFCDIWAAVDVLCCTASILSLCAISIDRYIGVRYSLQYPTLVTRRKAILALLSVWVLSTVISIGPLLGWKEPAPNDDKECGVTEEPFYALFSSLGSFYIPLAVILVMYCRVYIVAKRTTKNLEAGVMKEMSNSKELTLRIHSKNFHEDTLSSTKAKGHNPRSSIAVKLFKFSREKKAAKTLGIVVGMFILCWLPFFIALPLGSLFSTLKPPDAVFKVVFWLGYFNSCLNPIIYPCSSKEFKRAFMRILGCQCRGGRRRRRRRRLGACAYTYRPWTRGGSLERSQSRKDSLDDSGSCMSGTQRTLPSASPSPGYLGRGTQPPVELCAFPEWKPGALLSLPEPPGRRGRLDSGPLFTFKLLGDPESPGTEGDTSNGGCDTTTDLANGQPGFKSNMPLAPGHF
T2 sequence (P23944 whole entry): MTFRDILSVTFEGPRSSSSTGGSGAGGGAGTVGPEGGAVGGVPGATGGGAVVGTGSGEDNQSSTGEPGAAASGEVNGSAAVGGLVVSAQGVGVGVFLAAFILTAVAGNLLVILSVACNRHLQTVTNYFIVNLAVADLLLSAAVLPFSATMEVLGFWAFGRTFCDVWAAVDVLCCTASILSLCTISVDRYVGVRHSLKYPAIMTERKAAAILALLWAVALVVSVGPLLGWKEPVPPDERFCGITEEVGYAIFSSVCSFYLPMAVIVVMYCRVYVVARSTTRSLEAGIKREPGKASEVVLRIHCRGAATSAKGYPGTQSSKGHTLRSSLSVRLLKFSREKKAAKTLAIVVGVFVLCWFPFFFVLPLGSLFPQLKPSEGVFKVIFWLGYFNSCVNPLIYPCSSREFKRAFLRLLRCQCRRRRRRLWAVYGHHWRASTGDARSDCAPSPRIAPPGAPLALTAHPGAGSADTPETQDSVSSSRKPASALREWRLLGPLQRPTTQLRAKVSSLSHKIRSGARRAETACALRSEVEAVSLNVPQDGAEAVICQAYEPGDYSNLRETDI
T2 sequence (P43140 whole entry): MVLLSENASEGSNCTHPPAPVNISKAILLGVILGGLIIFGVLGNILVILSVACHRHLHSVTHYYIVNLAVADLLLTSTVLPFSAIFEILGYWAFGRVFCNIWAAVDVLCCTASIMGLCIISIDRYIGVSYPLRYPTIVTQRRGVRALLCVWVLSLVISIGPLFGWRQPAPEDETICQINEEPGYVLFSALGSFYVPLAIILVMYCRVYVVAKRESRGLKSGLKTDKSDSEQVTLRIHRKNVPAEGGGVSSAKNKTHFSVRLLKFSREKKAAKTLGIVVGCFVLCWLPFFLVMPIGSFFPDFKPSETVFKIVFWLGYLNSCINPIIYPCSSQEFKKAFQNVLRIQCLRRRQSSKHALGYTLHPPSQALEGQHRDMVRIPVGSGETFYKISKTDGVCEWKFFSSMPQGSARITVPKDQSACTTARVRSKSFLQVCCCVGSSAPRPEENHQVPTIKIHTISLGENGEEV

[26] = biological target: Adrenergic receptor alpha-1 (Oryctolagus cuniculus); test: pA2 value for phenylephrine antagonist towards at alpha-1 adrenergic receptor was determined in rabbit aorta
Canis familiaris [27] = species on record: Canis familiaris; test: Dose required to reduce blood pressure by 15% (ED15) was calculated; type: functional; settings: Canis lupus familiaris
Canis familiaris [28] = test: Mean arterial blood pressure (MABP) was evaluated in anesthetized dog by intravenous administration of compound at 1 mg/kg; type: functional, Canis lupus familiaris
Rattus norvegicus [29] = test: Mean arterial blood pressure (MABP) was evaluated in conscious hypertensive rats by peroral administration of compound at 30 mg/kg; type: functional; settings: route oral

Structure (SMILES): Cc1cc2c(s1)CCC(CN[C@@H]1CC[C@@H](Oc3ccccc3)[C@@H]1O)C2=O.Cl (some centres not stated)
- IC50 [1]: 800 nM
- ED15 (Canis familiaris [2]): 0.08 mg/kg
- Delta MABP (Canis familiaris [3]): -3%
- Delta MABP (Canis familiaris [4]): -3%
- Delta MABP (Canis familiaris [5]): -6%
- Delta RBF (Canis familiaris [6]): 9%
- Delta RBF (Canis familiaris [7]): -1%
- Delta RBF (Canis familiaris [8]): 9%
- Delta RBF (Canis familiaris [9]): -6%
- Delta RBF (Canis familiaris [10]): -1%
- Delta MABP (Canis familiaris [11]): -10%
- Delta MABP (Canis familiaris [12]): -10%
- Delta MABP (Canis familiaris [13]): -14%
- Delta MABP (Canis familiaris [14]): -15%
- Delta MABP (Canis familiaris [15]): -21%
- Delta MABP (Canis familiaris [16]): -22%
- Delta MABP (Canis familiaris [17]): -29%
- Delta RBF (Canis familiaris [18]): -2%
- Delta RBF (Canis familiaris [19]): 6%
- Delta RBF (Canis familiaris [20]): -1%
- Delta RBF (Canis familiaris [21]): 10%
- Delta RBF (Canis familiaris [22]): -1%
- Max delta MABP (Canis familiaris [23]): -47 mmHg
- Max delta MABP (Rattus norvegicus [24]; route oral): -70 mmHg
- IC50 [25]: 8 nM
- pA2 [26]: 8.13

Structure (SMILES): Cc1cc2c(s1)CCC(CN[C@H]1CC[C@@H](Oc3ccccc3)[C@@H]1O)C2=O (some centres not stated)
- IC50 [1]: > 1000 nM
- ED15 (Canis familiaris [27]): > 10 mg/kg
- Max delta MABP (Canis familiaris [23]): -8 mmHg
- Max delta MABP (Rattus norvegicus [24]): inactive
- IC50 [25]: 90 nM
- pA2 [26]: 7.04

Structure (SMILES): Cc1cc2c(s1)CCC(CN[C@H]1CC[C@@H](Oc3ccccc3)[C@H]1O)C2=O (some centres not stated)
- IC50 [1]: 600 nM
- ED15 (Canis familiaris [2]): 3.3 mg/kg
- Max delta MABP (Canis familiaris [23]): -16 mmHg
- Max delta MABP (Rattus norvegicus [24]): inactive
- IC50 [25]: 55 nM
- pA2 [26]: 7.28

Structure (SMILES): Cc1cc2c(s1)CCC(CN[C@@H]1CC[C@@H](Oc3ccccc3)[C@H]1O)C2=O (some centres not stated)
- IC50 [1]: 100 nM
- ED15 (Canis familiaris [2]): 0.61 mg/kg
- Max delta MABP (Canis familiaris [23]): -31 mmHg
- Max delta MABP (Rattus norvegicus [24]; route oral): -34 mmHg
- IC50 [25]: 45 nM
- pA2 [26]: 7.4

Structure (SMILES): COc1cc2nc(N3CCN(C(=O)c4ccco4)CC3)nc(N)c2cc1OC [PRAZOSIN]
- ED15 (Canis familiaris [2]): 0.1 mg/kg
- Max delta MABP (Canis familiaris [28]): -30 mmHg
- Max delta MABP (Rattus norvegicus [29]): -45 mmHg

From ChEMBL document CHEMBL1122929, “6,7-Dihydro-5-[[(cis-2-hydroxy-trans-3-phenoxycyclopentyl)amino] methyl]-2-methylbenzo[b]thiophen-4(5H)-one: a novel alpha 1-adrenergic receptor antagonist and renal vasodilator” (J Med Chem, 1985)
